*1 amine or outer side, *2 acyl side, *3 side chain or, on linkers, in order; H or OH if unused. Where a SMILES comes first, the peptide text is derived from it. Side-chain parts run from the residue outwards. [ ]: non-standard residue; d: D form. The star is where a group is joined. C20 diacid = O=C(O)CCCCCCCCCCCCCCCCCCC(=O)*; C18 diacid = O=C(O)CCCCCCCCCCCCCCCCC(=O)*; C16 diacid = O=C(O)CCCCCCCCCCCCCCC(=O)*; γGlu = O=C(O)[C@H](CCC(=O)[*:2])N[*:1]; C14 diacid = O=C(O)CCCCCCCCCCCCC(=O)*; NMeI = CC[C@H](C)[C@H](NC)C(=O)O; αMeL = CC(C)C[C@](C)(N)C(=O)O; Pentanoyl = CCCCC(=O)*; AEEA = NCCOCCOCC(=O)O; Aib = CC(C)(N)C(=O)O

The term EC50 denotes the midpoint of the concentration-response curve.

For one assay, the target named is T1, human CRF2a receptor (Homo sapiens, UniProt Q13324).
T1 construct: expressed in transfected cells; host or cells: TeloHEAC cells
T1 sequence (Q13324 1-411): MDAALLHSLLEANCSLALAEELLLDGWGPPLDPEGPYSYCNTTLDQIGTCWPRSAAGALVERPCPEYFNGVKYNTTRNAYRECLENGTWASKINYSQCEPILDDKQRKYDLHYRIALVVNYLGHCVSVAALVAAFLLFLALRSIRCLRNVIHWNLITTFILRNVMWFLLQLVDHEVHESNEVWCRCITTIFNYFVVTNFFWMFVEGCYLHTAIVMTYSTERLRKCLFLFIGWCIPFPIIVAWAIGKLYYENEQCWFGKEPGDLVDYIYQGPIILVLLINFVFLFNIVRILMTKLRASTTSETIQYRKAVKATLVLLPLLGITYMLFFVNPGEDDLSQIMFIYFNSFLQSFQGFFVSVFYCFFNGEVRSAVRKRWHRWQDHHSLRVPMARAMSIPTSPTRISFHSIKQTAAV
Nature of the assay: Activity at human CRF2a receptor, cAMP functional assay in TeloHEAC cells. The assay is classed as cell-based. The note with it: TeloHEAC cells stably expressing human CRF2a receptor, relative to urocortin 2 (100 nM = 100%). The method in brief: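 TeloHEAC cells stably expressing human CRF2a (10000 cells/well, suspended in HBSS/20 mM HEPES with 2 mM IBMX) were exposed to compounds for 30 min at 37 °C. cAMP was read as the 665/620 nm fluorescence ratio after 1 h at room temperature. EC50 was derived relative to 100 nM urocortin 2, set as 100%.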

In a further assay the target is T2, CFR1R receptor (Homo sapiens, UniProt P34998).
T2 construct: host or cells: CHO-K1 (clone 2)
T2 sequence (P34998 24-415): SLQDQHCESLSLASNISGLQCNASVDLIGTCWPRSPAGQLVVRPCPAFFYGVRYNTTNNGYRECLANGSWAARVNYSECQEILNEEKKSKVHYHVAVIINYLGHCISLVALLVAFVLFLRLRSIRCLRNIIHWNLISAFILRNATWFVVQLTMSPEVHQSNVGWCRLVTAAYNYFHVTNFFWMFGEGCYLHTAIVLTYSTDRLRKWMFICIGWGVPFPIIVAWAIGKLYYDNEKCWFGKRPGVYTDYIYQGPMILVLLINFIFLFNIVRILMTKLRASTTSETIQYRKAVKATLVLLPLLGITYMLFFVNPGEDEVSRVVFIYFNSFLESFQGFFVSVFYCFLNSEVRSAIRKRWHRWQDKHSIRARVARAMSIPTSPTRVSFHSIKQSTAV
Nature of the assay: Activity at anti-target CFR1R receptor, cAMP assay in CRF1R-overexpression CHO-K1 cells. The note with it: 100% = Sauvagine at 100 nM; for EC50: cAMP. The assay is classed as cell-based. The method in brief:
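Clone 2 cells were cultured in F12 (Hams)/10% FBS/400 μg/ml G418 at 37° C./5% CO2, frozen in medium with 10% DMSO, and thawed vials used. The protocol followed the TeloHAEC procedure, with 4000 cells/well final and Sauvagine at 100 nM defining 100% activation.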

For the molecule `CC[C@H](C)[C@H](NC)C(=O)N[C@H](C(=O)N[C@@H](CC(C)C)C(=O)N[C@@H](CO)C(=O)N[C@@H](CC(C)C)C(=O)N[C@@H](CC(=O)O)C(=O)N[C@@H](C(=O)N1CCC[C@H]1C(=O)N[C@H](C(=O)N[C@@H](CCCCN)C(=O)N[C@@H](CC(C)C)C(=O)N[C@@H](CCCCNC(=O)CC[C@H](NC(=O)CCCCCCCCCCCCCCCCC(=O)O)C(=O)O)C(=O)N[C@@H](CCCCN)C(=O)N[C@H](C(=O)N[C@@H](CC(C)C)C(=O)N[C@@H](CC(C)C)C(=O)N[C@@H](CCC(=O)O)C(=O)N[C@@H](CCC(N)=O)C(=O)N[C@@H](CCC(=O)O)C(=O)N[C@@H](CCCCN)C(=O)N[C@@H](CCC(N)=O)C(=O)N[C@@H](CCCCN)C(=O)N[C@@H](CCCCN)C(=O)N[C@@H](CCC(N)=O)C(=O)N[C@@H](CCCNC(=N)N)C(=O)N[C@@H](CCC(=O)O)C(=O)N[C@@H](CCC(N)=O)C(=O)N[C@@H](C)C(=O)N[C@@H](CCC(=O)O)C(=O)N[C@H](C(=O)N[C@@H](CC(N)=O)C(=O)NC(C)(C)C(=O)N[C@@H](CCC(N)=O)C(=O)N[C@H](C(=O)N[C@@H](CC(C)C)C(=O)N[C@@H](C)C(=O)N[C@@H](CCC(N)=O)C(=O)N[C@H](C(N)=O)C(C)C)[C@@H](C)CC)[C@@H](C)O)[C@@H](C)CC)[C@@H](C)CC)C(C)C)C(C)C` [compound 137] (H-[NMeI]VLSLD[dV]PIKLK([γGlu-C18 diacid])KILLEQEKQKKQREQAETN[Aib]QILAQV-NH2), at human CRF2a receptor, the concentration for a half-maximal effect (EC50) was determined as 0.07 nM. For the same molecule, on CFR1R receptor, the “Emax (% I)” value came out at 9 % I and the concentration giving a half-maximal response (EC50) was above 250 nM.
Turning to `CCCCC(=O)N[C@H](C(=O)N[C@@H](CC(C)C)C(=O)N[C@@H](CO)C(=O)N[C@@H](CC(C)C)C(=O)N[C@@H](CC(=O)O)C(=O)N[C@@H](C(=O)N1CCC[C@H]1C(=O)N[C@H](C(=O)N[C@@H](CCCCN)C(=O)N[C@@H](CC(C)C)C(=O)N[C@@H](CCCCNC(=O)CC[C@H](NC(=O)CCCCCCCCCCCCCCCCCCC(=O)O)C(=O)O)C(=O)N[C@@H](CCCCN)C(=O)N[C@H](C(=O)N[C@@H](CC(C)C)C(=O)N[C@@H](CC(C)C)C(=O)N[C@@H](CCC(=O)O)C(=O)N[C@@H](CCC(N)=O)C(=O)N[C@@H](CCC(=O)O)C(=O)N[C@@H](C)C(=O)N[C@@H](CCC(N)=O)C(=O)N[C@@H](CCCCN)C(=O)N[C@@H](CCCCN)C(=O)N[C@@H](CCC(N)=O)C(=O)N[C@@H](CCCNC(=N)N)C(=O)N[C@@H](CCC(=O)O)C(=O)N[C@@H](CCC(N)=O)C(=O)N[C@@H](C)C(=O)N[C@@H](CCC(=O)O)C(=O)N[C@H](C(=O)N[C@@H](CC(N)=O)C(=O)NC(C)(C)C(=O)N[C@@H](CCC(N)=O)C(=O)N[C@H](C(=O)N[C@@H](CC(C)C)C(=O)N[C@@H](C)C(=O)N[C@@H](CCC(N)=O)C(=O)N[C@H](C(N)=O)C(C)C)[C@@H](C)CC)[C@@H](C)O)[C@@H](C)CC)[C@@H](C)CC)C(C)C)C(C)C` [compound 221] (Pentanoyl-VLSLD[dV]PIKLK([γGlu-C20 diacid])KILLEQEAQKKQREQAETN[Aib]QILAQV-NH2), on human CRF2a receptor, the midpoint of the response, the EC50, lay at 0.18 nM. For the same molecule, the “Emax (% I)” value on CFR1R receptor came to 79 % I.
For `CCCCC(=O)N[C@H](C(=O)N[C@@H](CC(C)C)C(=O)N[C@@H](CO)C(=O)N[C@@H](CC(C)C)C(=O)N[C@@H](CC(=O)O)C(=O)N[C@@H](C(=O)N1CCC[C@H]1C(=O)N[C@H](C(=O)NCC(=O)N[C@@H](CC(C)C)C(=O)N[C@@H](CCCCNC(=O)CC[C@H](NC(=O)CCCCCCCCCCCCCCCCC(=O)O)C(=O)O)C(=O)N[C@@H](CCCCN)C(=O)N[C@H](C(=O)N[C@@H](CC(C)C)C(=O)N[C@@H](CC(C)C)C(=O)N[C@@H](CCC(=O)O)C(=O)N[C@@H](CCC(N)=O)C(=O)N[C@@H](CCC(=O)O)C(=O)N[C@@H](CCCCN)C(=O)N[C@@H](CCC(N)=O)C(=O)N[C@@H](CCCCN)C(=O)N[C@@H](CCCCN)C(=O)N[C@@H](CCC(N)=O)C(=O)N[C@@H](CCCNC(=N)N)C(=O)N[C@@H](CCC(=O)O)C(=O)N[C@@H](CCC(N)=O)C(=O)N[C@@H](C)C(=O)N[C@@H](CCC(=O)O)C(=O)N[C@H](C(=O)N[C@@H](CC(N)=O)C(=O)NC(C)(C)C(=O)N[C@@H](CCC(N)=O)C(=O)N[C@H](C(=O)N[C@@H](CC(C)C)C(=O)N[C@@H](C)C(=O)N[C@@H](CCC(N)=O)C(=O)N[C@H](C(N)=O)C(C)C)[C@@H](C)CC)[C@@H](C)O)[C@@H](C)CC)[C@@H](C)CC)C(C)C)C(C)C` [compound 195] (Pentanoyl-VLSLD[dV]PIGLK([γGlu-C18 diacid])KILLEQEKQKKQREQAETN[Aib]QILAQV-NH2) the same measures were 0.21 nM and 42 % I.
`CC[C@H](C)[C@H](NC(C)=O)C(=O)N[C@H](C(=O)N[C@@H](CC(C)C)C(=O)N[C@@H](CO)C(=O)N[C@@H](CC(C)C)C(=O)N[C@@H](CC(=O)O)C(=O)N[C@@H](C(=O)N1CCC[C@H]1C(=O)N[C@H](C(=O)N[C@@H](CCCCN)C(=O)N[C@@](C)(CC(C)C)C(=O)N[C@@H](CCCCNC(=O)CC[C@H](NC(=O)CCCCCCCCCCCCCCC(=O)O)C(=O)O)C(=O)N[C@@H](CCCCN)C(=O)N[C@H](C(=O)N[C@@H](CC(C)C)C(=O)N[C@@H](CC(C)C)C(=O)N[C@@H](CCC(=O)O)C(=O)N[C@@H](CCC(N)=O)C(=O)N[C@@H](CCC(=O)O)C(=O)N[C@@H](CCCCN)C(=O)N[C@@H](CCC(N)=O)C(=O)N[C@@H](CCCCN)C(=O)N[C@@H](CCCCN)C(=O)N[C@@H](CCC(N)=O)C(=O)N[C@@H](CCCNC(=N)N)C(=O)N[C@@H](CCC(=O)O)C(=O)N[C@@H](CCC(N)=O)C(=O)N[C@@H](C)C(=O)N[C@@H](CCC(=O)O)C(=O)N[C@H](C(=O)N[C@@H](CC(N)=O)C(=O)NC(C)(C)C(=O)N[C@@H](CCC(N)=O)C(=O)N[C@H](C(=O)N[C@@H](CC(C)C)C(=O)N[C@@H](C)C(=O)N[C@@H](CCC(N)=O)C(=O)N[C@H](C(N)=O)C(C)C)[C@@H](C)CC)[C@@H](C)O)[C@@H](C)CC)[C@@H](C)CC)C(C)C)C(C)C` [compound 44] (Ac-IVLSLD[dV]PIK[αMeL]K([γGlu-C16 diacid])KILLEQEKQKKQREQAETN[Aib]QILAQV-NH2) gave a concentration giving a half-maximal response (EC50) on human CRF2a receptor of 0.25 nM. Besides, at CFR1R receptor, the “Emax (% I)” value is given as 5 % I and the EC50 is above 250 nM.
For `CCCCC(=O)N[C@H](C(=O)N[C@@H](CC(C)C)C(=O)N[C@@H](CO)C(=O)N[C@@H](CC(C)C)C(=O)N[C@@H](CC(=O)O)C(=O)N[C@@H](C(=O)N1CCC[C@H]1C(=O)N[C@H](C(=O)N[C@@H](CCCCN)C(=O)N[C@@H](CC(C)C)C(=O)N[C@@H](CCCCNC(=O)COCCOCCNC(=O)COCCOCCNC(=O)CC[C@H](NC(=O)CC[C@H](NC(=O)CCCCCCCCCCCCC(=O)O)C(=O)O)C(=O)O)C(=O)N[C@@H](CCCCN)C(=O)N[C@H](C(=O)N[C@@H](CC(C)C)C(=O)N[C@@H](CC(C)C)C(=O)N[C@@H](CCC(=O)O)C(=O)N[C@@H](CCC(N)=O)C(=O)N[C@@H](CCC(=O)O)C(=O)N[C@@H](CCCCN)C(=O)N[C@@H](CCC(N)=O)C(=O)N[C@@H](CCCCN)C(=O)N[C@@H](CCCCN)C(=O)N[C@@H](CCC(N)=O)C(=O)N[C@@H](CCCNC(=N)N)C(=O)N[C@@H](CCC(=O)O)C(=O)N[C@@H](CCC(N)=O)C(=O)N[C@@H](C)C(=O)N[C@@H](CCC(=O)O)C(=O)N[C@H](C(=O)N[C@@H](CC(N)=O)C(=O)NC(C)(C)C(=O)N[C@@H](CCC(N)=O)C(=O)N[C@H](C(=O)N[C@@H](CC(C)C)C(=O)N[C@@H](C)C(=O)N[C@@H](CCC(N)=O)C(=O)N[C@H](C(N)=O)C(C)C)[C@@H](C)CC)[C@@H](C)O)[C@@H](C)CC)[C@@H](C)CC)C(C)C)C(C)C` [compound 181] (Pentanoyl-VLSLD[dV]PIKLK([AEEA-AEEA-γGlu-γGlu-C14 diacid])KILLEQEKQKKQREQAETN[Aib]QILAQV-NH2) the same measures were 24.7 nM, 9 % I and above 250 nM.

Values taken from patent publication US20260001928A1 (CORTERIA PHARMACEUTICALS, priority 2022, published 2026).
